Measured values as given in US20140315838A1, “Methods of Treating Recurring Bacterial Infection” (Optimer Pharmaceuticals, Inc., priority 2010, published 2014).

Test system: Clostridium difficile
Assay: Phase 3 randomized, double-blind clinical trials of 10-day treatment of C. difficile infection: recurrence rate
Assay type: in vivo, human
Conditions: 10-day oral treatment (fidaxomicin 200 mg bid, vancomycin 125 mg qid), relapse out to 4 weeks after end of treatment
Method: Subjects with mild to moderate C. difficile, males and females aged […] with >3 diarrheal (liquid or unformed) stools/day and with a positive enzyme immunoassay for C. difficile toxin or cell cytotoxicity assay and no more than 24 hours of prior treatment for C. difficile were eligible for enrollment. Only subjects with a primary episode or first relapse of disease were eligible. […] Subjects with ileus, WBC >30×10^9/L, toxic megacolon, or concern about life-threatening CDI were excluded from study entry. Subjects with severe underlying disease who were not expected to survive for 72 hours regardless of cause, who had had more than a single occurrence within 3 months, or who had Crohn's disease or ulcerative colitis were also excluded. […] They were evaluated for clinical cure at end of therapy and relapse out to 4 weeks following the end of treatment.

[1] = Stratum: Single Prior Episode of CDI (recurring CDI)

SMILES | Recurrence Rate (Stratum: No Prior Episode of CDI) | Recurrence Rate [1] | Recurrence Rate (Stratum: Single Prior Episode of CDI (recurring CDI), listed as fidaxomicin) | Recurrence Rate (Stratum: Single Prior Episode of CDI (recurring CDI), listed as vancomycin)
CCc1c(Cl)c(O)c(Cl)c(O)c1C(=O)O[C@H]1[C@H](O)[C@H](OC)[C@H](OC/C2=C\C=C\C[C@H](O)/C(C)=C/[C@H](CC)[C@@H](O[C@@H]3OC(C)(C)[C@@H](OC(=O)C(C)C)[C@H](O)[C@@H]3O)/C(C)=C/C(C)=C/C[C@@H]([C@@H](C)O)OC2=O)O[C@@H]1C [Fidaxomicin] | 38/325 (11.6%) | 13/66 (19.6%) | 19.6% | 
CN[C@H](CC(C)C)C(=O)N[C@H]1C(=O)N[C@@H](CC(N)=O)C(=O)N[C@H]2C(=O)N[C@H]3C(=O)N[C@H](C(=O)N[C@H](C(=O)O)c4cc(O)cc(O)c4-c4cc3ccc4O)[C@H](O)c3ccc(c(Cl)c3)Oc3cc2cc(c3O[C@@H]2O[C@H](CO)[C@@H](O)[C@H](O)[C@H]2O[C@H]2C[C@](C)(N)[C@H](O)[C@H](C)O2)Oc2ccc(cc2Cl)[C@H]1O [Vancomycin, reference compound] |  | 22/62 (35.5%) |  | 35.5%
